Reference: the NIST ThermoML archive (doi:10.1021/je0504515)

Experiment: xn = mol fraction of the nth substance listed
Conditions: Liquid; for electrical conductivity: Radiometer CDM 210 Meterlab conductimeter with a CDC 745-9 cell

CCCCCC[N+]1(C)CCCC1.O=S(=O)([N-]S(=O)(=O)C(F)(F)F)C(F)(F)F + CN(C)C=O
Conditions | electrical conductivity, 101 kPa [S/m] | viscosity, 101.3 kPa [mPa·s]
293.2 K, x2 = 0.1 | 0.155 | –
293.2 K, x2 = 0.5 | 0.382 | –
293.2 K, x2 = 0.9 | 1.68 | –
295.2 K, x2 = 0 | – | 119.8
295.2 K, x2 = 0.1 | 0.17 | –
295.2 K, x2 = 0.104 | – | 83
295.2 K, x2 = 0.205 | – | 56.7
295.2 K, x2 = 0.301 | – | 42.9
295.2 K, x2 = 0.402 | – | 28.1
295.2 K, x2 = 0.5 | 0.418 | 19.6
295.2 K, x2 = 0.599 | – | 12
295.2 K, x2 = 0.7 | – | 5.5
295.2 K, x2 = 0.9 | 1.74 | –
298.2 K, x2 = 0.1 | 0.191 | –
298.2 K, x2 = 0.5 | 0.47 | –
298.2 K, x2 = 0.9 | 1.82 | –
300.2 K, x2 = 0 | – | 96.8
300.2 K, x2 = 0.104 | – | 67.5
300.2 K, x2 = 0.205 | – | 47.2
300.2 K, x2 = 0.301 | – | 36.4
300.2 K, x2 = 0.402 | – | 24
300.2 K, x2 = 0.5 | – | 17
300.2 K, x2 = 0.599 | – | 10.5
300.2 K, x2 = 0.7 | – | 5.1
301.2 K, x2 = 0.1 | 0.211 | –
301.2 K, x2 = 0.5 | 0.522 | –
301.2 K, x2 = 0.9 | 1.9 | –
303.2 K, x2 = 0.1 | 0.224 | –
303.2 K, x2 = 0.5 | 0.557 | –
303.2 K, x2 = 0.9 | 1.96 | –
305.2 K, x2 = 0 | – | 79.6
305.2 K, x2 = 0.1 | 0.239 | –
305.2 K, x2 = 0.104 | – | 55.8
305.2 K, x2 = 0.205 | – | 39.8
305.2 K, x2 = 0.301 | – | 30.8
305.2 K, x2 = 0.402 | – | 20.9
305.2 K, x2 = 0.5 | 0.592 | 14.7
305.2 K, x2 = 0.599 | – | 9.3
305.2 K, x2 = 0.7 | – | 4.7
305.2 K, x2 = 0.9 | 2.02 | –
308.2 K, x2 = 0.1 | 0.26 | –
308.2 K, x2 = 0.5 | 0.645 | –
308.2 K, x2 = 0.9 | 2.1 | –
310.2 K, x2 = 0 | – | 64.8
310.2 K, x2 = 0.104 | – | 45.9
310.2 K, x2 = 0.205 | – | 33.6
310.2 K, x2 = 0.301 | – | 26.3
310.2 K, x2 = 0.402 | – | 17.9
310.2 K, x2 = 0.5 | – | 13
310.2 K, x2 = 0.599 | – | 8.4
310.2 K, x2 = 0.7 | – | 4.3
311.2 K, x2 = 0.1 | 0.28 | –
311.2 K, x2 = 0.5 | 0.697 | –
311.2 K, x2 = 0.9 | 2.19 | –
313.2 K, x2 = 0.1 | 0.295 | –
313.2 K, x2 = 0.5 | 0.732 | –
313.2 K, x2 = 0.9 | 2.24 | –
315.2 K, x2 = 0 | – | 54.2
315.2 K, x2 = 0.1 | 0.31 | –
315.2 K, x2 = 0.104 | – | 38
315.2 K, x2 = 0.205 | – | 28.8
315.2 K, x2 = 0.301 | – | 22.6
315.2 K, x2 = 0.402 | – | 15.7
315.2 K, x2 = 0.5 | 0.767 | 11.4
315.2 K, x2 = 0.599 | – | 7.5
315.2 K, x2 = 0.7 | – | 3.9
315.2 K, x2 = 0.9 | 2.31 | –
318.2 K, x2 = 0.1 | 0.33 | –
318.2 K, x2 = 0.5 | 0.819 | –
318.2 K, x2 = 0.9 | 2.39 | –
320.2 K, x2 = 0 | – | 45.9
320.2 K, x2 = 0.104 | – | 32.4
320.2 K, x2 = 0.205 | – | 24.8
320.2 K, x2 = 0.301 | – | 19.5
320.2 K, x2 = 0.402 | – | 13.9
320.2 K, x2 = 0.5 | – | 10
320.2 K, x2 = 0.599 | – | 6.8
320.2 K, x2 = 0.7 | – | 3.6
321.2 K, x2 = 0.1 | 0.351 | –
321.2 K, x2 = 0.5 | 0.871 | –
321.2 K, x2 = 0.9 | 2.48 | –
323.2 K, x2 = 0.1 | 0.365 | –
323.2 K, x2 = 0.5 | 0.91 | –
323.2 K, x2 = 0.9 | 2.54 | –
325.2 K, x2 = 0 | – | 38.9
325.2 K, x2 = 0.104 | – | 27.6
325.2 K, x2 = 0.205 | – | 21.8
325.2 K, x2 = 0.301 | – | 16.9
325.2 K, x2 = 0.402 | – | 12
325.2 K, x2 = 0.5 | – | 9.1
325.2 K, x2 = 0.599 | – | 6.2
325.2 K, x2 = 0.7 | – | 3.4

CCCC[N+]1(C)CCCC1.O=S(=O)([N-]S(=O)(=O)C(F)(F)F)C(F)(F)F + CN(C)C=O
295.2 K
Conditions | electrical conductivity, 101 kPa [S/m] | viscosity, 101.3 kPa [mPa·s]
x2 = 0 | 0.28 | 80
x2 = 0.13 | – | 40.3
x2 = 0.144 | 0.387 | –
x2 = 0.24 | – | 29.6
x2 = 0.252 | 0.495 | –
x2 = 0.33 | – | 21.7
x2 = 0.336 | 0.612 | –
x2 = 0.403 | 0.74 | –
x2 = 0.45 | – | 14.4
x2 = 0.457 | 0.78 | –
x2 = 0.519 | 0.981 | –
x2 = 0.54 | – | 9.9
x2 = 0.574 | 1.1 | –
x2 = 0.637 | 1.32 | –
x2 = 0.64 | – | 6.6
x2 = 0.716 | 1.6 | –
x2 = 0.74 | – | 3.7
x2 = 0.773 | 1.85 | –
x2 = 0.835 | 2.1 | –
x2 = 0.871 | 2.17 | –
x2 = 0.894 | 2.17 | –
x2 = 0.91 | 2.12 | –
x2 = 0.931 | 1.98 | –
x2 = 0.953 | 1.7 | –
x2 = 0.971 | 1.31 | –
x2 = 0.981 | 1.01 | –

CCCC[N+]1(C)CCCC1.O=S(=O)([N-]S(=O)(=O)C(F)(F)F)C(F)(F)F + Cc1cccnc1
Conditions | electrical conductivity [S/m]
295.2 K, 101 kPa, x2 = 0 | 0.28

CCCCn1cc[n+](C)c1.F[B-](F)(F)F [1-butyl-3-methylimidazolium tetrafluoroborate] + CN(C)C=O
295.2 K, 101 kPa
Conditions | electrical conductivity [S/m] | viscosity [mPa·s]
x2 = 0 | 0.375 | 122.9
x2 = 0.088 | 0.464 | –
x2 = 0.14 | – | 65.6
x2 = 0.161 | 0.551 | –
x2 = 0.224 | 0.629 | –
x2 = 0.23 | – | 45.4
x2 = 0.324 | 0.79 | –
x2 = 0.33 | – | 26.3
x2 = 0.366 | 0.871 | –
x2 = 0.434 | 1.03 | –
x2 = 0.44 | – | 16.1
x2 = 0.49 | 1.17 | –
x2 = 0.53 | – | 11.2
x2 = 0.535 | 1.3 | –
x2 = 0.606 | 1.55 | –
x2 = 0.61 | – | 9.8
x2 = 0.658 | 1.72 | –
x2 = 0.728 | 2.01 | –
x2 = 0.73 | – | 4.7
x2 = 0.793 | 2.31 | –
x2 = 0.828 | 2.4 | –
x2 = 0.852 | 2.44 | –
x2 = 0.906 | 2.44 | –
x2 = 0.957 | 1.83 | –
x2 = 0.973 | 1.39 | –
x2 = 0.981 | 1.13 | –

CCCCn1cc[n+](C)c1.F[B-](F)(F)F [1-butyl-3-methylimidazolium tetrafluoroborate] + Cc1cccnc1
Conditions | electrical conductivity [S/m]
295.2 K, 101 kPa, x2 = 0 | 0.378

Cc1cccnc1 [3-methylpyridine] + CCCC[N+]1(C)CCCC1.O=S(=O)([N-]S(=O)(=O)C(F)(F)F)C(F)(F)F
295.2 K, 101 kPa
Conditions | electrical conductivity [S/m]
x1 = 0.029 | 0.353
x1 = 0.057 | 0.335
x1 = 0.095 | 0.367
x1 = 0.153 | 0.416
x1 = 0.194 | 0.445
x1 = 0.249 | 0.467
x1 = 0.338 | 0.522
x1 = 0.387 | 0.578
x1 = 0.439 | 0.606
x1 = 0.49 | 0.635
x1 = 0.54 | 0.686
x1 = 0.591 | 0.726
x1 = 0.64 | 0.761
x1 = 0.691 | 0.793
x1 = 0.743 | 0.814
x1 = 0.794 | 0.808
x1 = 0.845 | 0.771
x1 = 0.896 | 0.665

Cc1cccnc1 [3-methylpyridine] + CCCCn1cc[n+](C)c1.F[B-](F)(F)F
295.2 K, 101 kPa
Conditions | electrical conductivity [S/m]
x1 = 0.061 | 0.44
x1 = 0.114 | 0.476
x1 = 0.162 | 0.52
x1 = 0.205 | 0.555
x1 = 0.244 | 0.588
x1 = 0.279 | 0.616
x1 = 0.34 | 0.674
x1 = 0.392 | 0.72
x1 = 0.474 | 0.802
x1 = 0.568 | 0.845
x1 = 0.659 | 0.915
x1 = 0.721 | 0.928
x1 = 0.763 | 0.936
x1 = 0.798 | 0.94
x1 = 0.838 | 0.838
x1 = 0.866 | 0.747
x1 = 0.906 | 0.59
x1 = 0.928 | 0.474
